We go through 18 compounds from BindingDB's records for doi:10.7270/Q2WH2TT9 (D3R/Abbott, 2020).

In the assay the target is Angiopoietin-1 receptor (Homo sapiens, UniProt Q02763). Put plainly: D3R2025.
Sequence of Angiopoietin-1 receptor (Q02763 whole entry): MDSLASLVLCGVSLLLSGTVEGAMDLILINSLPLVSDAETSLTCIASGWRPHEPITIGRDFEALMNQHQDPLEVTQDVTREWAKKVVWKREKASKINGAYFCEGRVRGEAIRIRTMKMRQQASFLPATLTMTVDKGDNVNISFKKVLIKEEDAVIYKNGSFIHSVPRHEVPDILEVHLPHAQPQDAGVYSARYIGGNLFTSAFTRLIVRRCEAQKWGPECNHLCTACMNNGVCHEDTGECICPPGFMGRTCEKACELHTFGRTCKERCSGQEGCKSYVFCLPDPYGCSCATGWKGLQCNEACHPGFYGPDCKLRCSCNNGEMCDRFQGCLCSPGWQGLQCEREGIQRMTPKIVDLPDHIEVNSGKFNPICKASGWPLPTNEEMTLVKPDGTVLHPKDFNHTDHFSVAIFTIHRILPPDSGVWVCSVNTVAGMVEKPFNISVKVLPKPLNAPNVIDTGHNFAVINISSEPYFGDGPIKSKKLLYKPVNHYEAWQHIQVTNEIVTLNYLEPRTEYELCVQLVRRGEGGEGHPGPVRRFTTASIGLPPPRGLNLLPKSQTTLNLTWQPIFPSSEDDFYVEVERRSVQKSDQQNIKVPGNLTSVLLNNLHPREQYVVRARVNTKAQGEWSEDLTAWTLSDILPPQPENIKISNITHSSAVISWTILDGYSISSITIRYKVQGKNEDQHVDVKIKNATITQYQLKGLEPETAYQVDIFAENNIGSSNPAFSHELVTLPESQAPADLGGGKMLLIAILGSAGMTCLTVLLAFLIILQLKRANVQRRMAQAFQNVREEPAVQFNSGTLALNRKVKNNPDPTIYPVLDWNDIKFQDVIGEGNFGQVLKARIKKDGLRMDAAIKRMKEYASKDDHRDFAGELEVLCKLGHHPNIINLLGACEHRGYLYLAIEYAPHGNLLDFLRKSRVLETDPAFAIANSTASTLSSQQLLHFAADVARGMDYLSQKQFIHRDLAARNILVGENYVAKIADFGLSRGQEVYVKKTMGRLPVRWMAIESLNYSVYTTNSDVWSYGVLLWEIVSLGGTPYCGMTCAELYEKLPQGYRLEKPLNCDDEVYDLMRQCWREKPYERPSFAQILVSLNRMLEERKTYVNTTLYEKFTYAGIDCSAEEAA
Source text: D3R2025
As a reminder, the Kd is the concentration at which binding is half-saturated. A high value points to a looser complex. Consider `CSc1nccc(-c2c(-c3ccc(F)cc3)ncn2CCCN2CCOCC2)n1`, for which binding was put at a Kd of 10 µM.

With `CNc1nccc(-c2c(-c3ccc(F)cc3)ncn2CCCN2CCOCC2)n1`, the Kd came out at 10 µM. As for `Cc1cc(-c2c(-c3ccc(F)cc3)ncn2CCCN2CCOCC2)nc(N)n1`, the figure is 10 µM; as for `CC(C)c1nc(-c2ccc(F)c(NS(=O)(=O)c3c(F)cccc3F)c2)c(-c2ccnc(Nc3ccc(N4CCOCC4)nc3)n2)s1`, 0.024 µM; as for `O=C(Nc1cccc(-c2nn3ncccc3c2-c2ccnc(Nc3cccnc3)n2)c1)c1c(F)cccc1F`, 10 µM. The result for `CCOC(=O)N1CCC(n2cnc(-c3ccc(F)cc3)c2-c2ccnc(N)n2)CC1` [4-[5-(2-Amino-pyrimidin-4-yl)-4-(4-fluoro-phenyl)-imidazol-1-yl]-piperidine-1-carboxylic acid ethyl ester] reads 10 µM.

Compound `COc1nccc(-c2c(-c3ccc(F)cc3)ncn2CCCN2CCOCC2)n1` [4-{3-[4-(4-Fluoro-phenyl)-5-(2-methoxy-pyrimidin-4-yl)-imidazol-1-yl]-propyl}-morpholine] gave a dissociation constant Kd of 10 µM.

Compound `Nc1nccc(-c2c(-c3ccc(F)cc3)ncn2C2CCN(CC(F)(F)F)CC2)n1` [4-{5-(4-Fluoro-phenyl)-3-[1-(2,2,2-trifluoro-ethyl)-piperidin-4-yl]-3H-imidazol-4-yl}-pyrimidin-2-ylamine] returned a Kd of 10 µM. The result for `CC(C)c1nc(-c2cccc(NS(=O)(=O)c3c(F)cccc3F)c2F)c(-c2ccnc(Nc3ccc(N4CCOCC4)nc3)n2)s1` [D3RKN_29] reads 0.0034 µM. `O=C(Nc1cccc(-c2nn3ncccc3c2-c2ccnc(Nc3ccccc3)n2)c1)c1c(F)cccc1F` [D3RKN_56] showed a Kd of 2.5 µM. `CC(=O)N1CCN(c2ccc(Nc3nccc(-c4sc(C(C)C)nc4-c4cccc(NS(=O)(=O)c5cccc(Cl)c5)c4)n3)cn2)CC1` [D3RKN_98]: the affinity, expressed as Kd, was 0.093 µM.

For `CC(C)c1nc(-c2cccc(NS(=O)(=O)c3ccccc3)c2)c(-c2ccnc(Nc3ccc4c(c3)CN(C)CC4)n2)s1` [D3RKN_117], binding was characterised by a dissociation constant (Kd) of 0.092 µM. On to `CC(C)c1nc(-c2cccc(NS(=O)(=O)c3c(F)cccc3F)c2)c(-c2ccnc(Nc3ccc(N4CCOCC4)nc3)n2)s1` [D3RKN_118], for which the affinity, expressed as Kd, was 0.027 µM. Turning to `O=C(Nc1cccc(-c2nn3ncccc3c2-c2ccnc(Nc3cccc(C(F)(F)F)c3)n2)c1)c1c(F)cccc1F` [D3RKN_119], the affinity, expressed as Kd, was 10 µM.

In the case of `CCc1nc(-c2cccc(N(C)S(=O)(=O)c3ccccc3)c2)c(-c2ccnc(Nc3ccc(N4CCN(C(C)=O)CC4)nc3)n2)s1` [D3RKN_120], the Kd came to 3.2 µM. In turn, `COc1cc(Nc2nccc(-c3c(-c4cccc(NC(=O)c5c(F)cccc5F)c4)nn4ncccc34)n2)cc(OC)c1OC` [D3RKN_124] returned a Kd of 0.2 µM.

In turn, `CCNc1nccc(-c2c(-c3ccc(F)cc3)ncn2C2CCN(C)CC2)n1` [Ethyl-{4-[5-(4-fluoro-phenyl)-3-(1-methyl-piperidin-4-yl)-3H-imidazol-4-yl]-pyrimidin-2-yl}-amine] yielded a Kd of 10 µM. `CNc1nccc(-c2c(-c3ccc(F)cc3)ncn2C2CCN(C)CC2)n1` [{4-[5-(4-Fluoro-phenyl)-3-(1-methyl-piperidin-4-yl)-3H-imidazol-4-yl]-pyrimidin-2-yl}-methyl-amine] registered a Kd of 10 µM.
